In ChEMBL document CHEMBL1141983, “QSAR of estrogen receptor modulators: exploring selectivity requirements for ER(alpha) versus ER(beta) binding of tetrahydroisoquinoline derivatives using E-state and physicochemical parameters” (Bioorg Med Chem Lett, 2005):

Key:
Estrogen receptor [1] = target: T1, Estrogen receptor (Homo sapiens, UniProt P03372)
T1 sequence (P03372 whole entry): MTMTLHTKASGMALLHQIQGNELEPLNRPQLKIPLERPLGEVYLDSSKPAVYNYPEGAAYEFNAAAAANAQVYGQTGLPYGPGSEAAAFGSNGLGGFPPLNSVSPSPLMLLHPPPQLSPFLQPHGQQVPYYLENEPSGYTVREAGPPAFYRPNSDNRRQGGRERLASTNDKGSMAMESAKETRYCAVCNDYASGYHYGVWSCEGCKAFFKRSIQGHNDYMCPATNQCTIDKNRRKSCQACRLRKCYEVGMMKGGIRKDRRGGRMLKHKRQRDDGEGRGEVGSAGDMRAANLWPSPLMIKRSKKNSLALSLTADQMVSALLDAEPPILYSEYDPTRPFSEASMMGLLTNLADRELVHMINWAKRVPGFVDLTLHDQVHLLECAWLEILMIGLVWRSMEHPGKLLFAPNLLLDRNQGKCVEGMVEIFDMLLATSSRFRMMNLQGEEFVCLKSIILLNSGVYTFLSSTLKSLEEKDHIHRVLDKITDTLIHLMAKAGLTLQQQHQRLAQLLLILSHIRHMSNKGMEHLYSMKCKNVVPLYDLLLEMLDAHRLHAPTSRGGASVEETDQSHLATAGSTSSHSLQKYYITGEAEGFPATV
Description: (§1) Inhibition of transcriptional activation by human estrogen receptor alpha

Estrogen receptor beta [2] = target: T2, Estrogen receptor beta (Homo sapiens, UniProt Q92731); assay: Inhibition of binding to human estrogen receptor beta
T2 sequence (Q92731 whole entry): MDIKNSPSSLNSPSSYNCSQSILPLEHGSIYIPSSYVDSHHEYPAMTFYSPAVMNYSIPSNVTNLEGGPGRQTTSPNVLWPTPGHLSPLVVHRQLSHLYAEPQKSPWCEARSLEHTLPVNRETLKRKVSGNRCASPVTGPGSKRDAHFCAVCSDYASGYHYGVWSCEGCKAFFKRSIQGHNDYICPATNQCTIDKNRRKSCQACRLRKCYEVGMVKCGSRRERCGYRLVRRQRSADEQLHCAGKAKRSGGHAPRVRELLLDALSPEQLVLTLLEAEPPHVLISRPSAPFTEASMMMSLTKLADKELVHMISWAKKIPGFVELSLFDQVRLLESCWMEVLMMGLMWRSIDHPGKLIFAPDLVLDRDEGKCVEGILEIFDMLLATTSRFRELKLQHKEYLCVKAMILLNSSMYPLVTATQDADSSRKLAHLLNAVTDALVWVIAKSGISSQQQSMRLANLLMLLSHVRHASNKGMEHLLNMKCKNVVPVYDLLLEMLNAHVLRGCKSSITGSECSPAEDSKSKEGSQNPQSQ

Estrogen receptor [3] = target: T1, Estrogen receptor; remark: listed apart in the source
Description: Inhibition of binding to human estrogen receptor alpha

Estrogen receptor [4] = target: T1, Estrogen receptor; remark: listed apart in the source
Description: as §1

Estrogen receptor beta [5] = target: T2, Estrogen receptor beta; assay: Inhibition of transcriptional activation by human estrogen receptor beta

SMILES	pIC50(uM) (Estrogen receptor [1])	also measured
CC1(c2ccc(OCCN3CCCCCC3)cc2)c2ccc(O)cc2CCN1c1ccccc1 (stereo not given)	2.824	–
CC1(c2ccc(OCCN3CCCCC3)cc2)c2ccc(O)cc2CCN1c1cccc(O)c1 (stereo not given)	3.155	–
CN(C)c1cccc(N2CCc3cc(O)ccc3C2c2ccc(OCCN3CCCCC3)cc2)c1 (stereo not given)	–	IC50 (Estrogen receptor beta [2]): 3110 nM; IC50 (Estrogen receptor [3]): 71 nM; IC50 (Estrogen receptor [4]): 19.8 nM; IC50 (Estrogen receptor beta [5]): 2180 nM
CC1(c2ccc(OCCN3CCCCC3)cc2)c2ccc(O)cc2CCN1c1ccccc1 (stereo not given)	2.585	–
CC1(c2ccc(OCCN3CCCC3)cc2)c2ccc(O)cc2CCN1c1cccc(Cl)c1 (stereo not given)	2.538	–
CC1(c2ccc(OCCN3CCCCC3)cc2)c2ccc(O)cc2CCN1c1cccc(Cl)c1 (stereo not given)	2.347	–

The next lines start with results.

pIC50(uM) (Estrogen receptor [1])	SMILES	also measured
2.796	CC1(c2ccc(OCCN3CCCC3)cc2)c2ccc(O)cc2CCN1c1ccc(F)cc1 (stereo not given)	–
2.284	CC(C)c1ccc(N2CCc3cc(O)ccc3C2(C)c2ccc(OCCN3CCCCC3)cc2)cc1 (stereo not given)	–
2.745	CC1(c2ccc(OCCN3CCCC3)cc2)c2ccc(O)cc2CCN1c1ccccc1 (stereo not given)	–
2.523	CC1(c2ccc(OCCN3CCCC3)cc2)c2ccc(O)cc2CCN1c1cccc(F)c1 (stereo not given)	–
2.585	CC(C)c1ccc(N2CCc3cc(O)ccc3C2(C)c2ccc(OCCN3CCCC3)cc2)cc1 (stereo not given)	–
2.509	CC1(c2ccc(OCCN3CCCCC3)cc2)c2ccc(O)cc2CCN1c1ccc(Cl)cc1 (stereo not given)	–
